{"source": "ChEMBL document CHEMBL1148037", "about": "“Effect of Fungal Natural Products in an Agrobacterium tumefaciens Potato Disc Assay” (1994)", "key": {"[1]": {"tested_on": "Agrobacterium tumefaciens", "assay": "Antitumor activity against Agrobacterium tumefaciens B6-induced crown-gall tumor formation in potato assessed as tumor induction at 25 ug/disk after 12 days at 27 degC by potato disk assay relative to control", "type": "functional"}, "[2]": {"tested_on": "Agrobacterium tumefaciens", "assay": "Antitumor activity against Agrobacterium tumefaciens B6-induced crown-gall tumor formation in potato assessed as tumor induction at 5 ug/disk after 12 days at 27 degC by potato disk assay relative to control", "type": "functional"}, "[3]": {"tested_on": "Agrobacterium tumefaciens", "assay": "Antitumor activity against Agrobacterium tumefaciens B6-induced crown-gall tumor formation in potato assessed as tumor induction at 10 ug/disk after 12 days at 27 degC by potato disk assay relative to control", "type": "functional"}, "[4]": {"tested_on": "Agrobacterium tumefaciens", "assay": "Antitumor activity against Agrobacterium tumefaciens B6-induced crown-gall tumor formation in potato assessed as tumor induction at 50 ug/disk after 12 days at 27 degC by potato disk assay relative to control", "type": "functional"}, "Bacillus subtilis": {"tested_on": "Bacillus subtilis", "assay": "Antibacterial activity against Bacillus subtilis at 50 to 500 ug/disk by paper-disk-plate technique", "type": "functional, organism-based"}, "[5]": {"tested_on": "Brochothrix thermosphacta", "assay": "Antibacterial activity against Microbacterium thermosphactum at 50 to 500 ug/disk by paper-disk-plate technique", "type": "functional, organism-based"}, "Bacillus cereus": {"tested_on": "Bacillus cereus", "assay": "Antibacterial activity against Bacillus cereus at 50 to 500 ug/disk by paper-disk-plate technique", "type": "functional, organism-based"}, "Escherichia coli": {"tested_on": "Escherichia coli", "assay": "Antibacterial activity against Escherichia coli at 50 to 500 ug/disk by paper-disk-plate technique", "type": "functional, organism-based"}, "Enterobacter cloacae": {"tested_on": "Enterobacter cloacae", "assay": "Antibacterial activity against Enterobacter cloacae at 50 to 500 ug/disk by paper-disk-plate technique", "type": "functional, organism-based"}, "Citrobacter freundii": {"tested_on": "Citrobacter freundii", "assay": "Antibacterial activity against Citrobacter freundii at 50 to 500 ug/disk by paper-disk-plate technique", "type": "functional, organism-based"}, "Aspergillus flavus": {"tested_on": "Aspergillus flavus", "assay": "Antifungal activity against Aspergillus flavus at 50 to 500 ug/disk by paper-disk-plate technique", "type": "functional, organism-based"}, "Curvularia lunata": {"tested_on": "Curvularia lunata", "assay": "Antifungal activity against Curvularia lunata at 50 to 500 ug/disk by paper-disk-plate technique", "type": "functional, organism-based"}, "Chaetomium": {"tested_on": "Chaetomium", "assay": "Antifungal activity against Chaetomium at 50 to 500 ug/disk by paper-disk-plate technique", "type": "functional, organism-based"}, "[6]": {"tested_on": "Agrobacterium tumefaciens", "assay": "Antibacterial activity against Agrobacterium tumefaciens at 50 to 500 ug/disk by paper-disk-plate technique", "type": "functional, organism-based"}}, "note": "Calls of active or inactive are those of the source. No cut-off for these calls is given here."}
{"smiles": "C[C@@H]1C/C=C/CCCCC(=O)Cc2cc(O)cc(O)c2C(=O)O1", "note": "[MONOCILLIN IV]", "values": [{"measurement": "Activity", "setting": "[1]", "value": -78, "unit": "%"}, {"measurement": "Activity", "setting": "[2]", "value": -8, "unit": "%"}, {"measurement": "Activity", "setting": "[3]", "value": -63, "unit": "%"}, {"measurement": "Activity", "setting": "[4]", "value": -75, "unit": "%"}, {"measurement": "Activity", "setting": "Bacillus subtilis", "value": "inactive"}, {"measurement": "Activity", "setting": "[5]", "value": "inactive"}, {"measurement": "Activity", "setting": "Bacillus cereus", "value": "inactive"}, {"measurement": "Activity", "setting": "Escherichia coli", "value": "inactive"}, {"measurement": "Activity", "setting": "Enterobacter cloacae", "value": "inactive"}, {"measurement": "Activity", "setting": "Citrobacter freundii", "value": "inactive"}, {"measurement": "Activity", "setting": "Aspergillus flavus", "value": "inactive"}, {"measurement": "Activity", "setting": "Curvularia lunata", "value": "inactive"}, {"measurement": "Activity", "setting": "Chaetomium", "value": "inactive"}, {"measurement": "Activity", "setting": "[6]", "value": "inactive"}]}
{"smiles": "CC(C)=C1Oc2c(ccc3c2COC(C)(O)C3)C1=O", "note": "(centres undefined) [PERGILLIN]", "values": [{"measurement": "Activity", "setting": "[1]", "value": -68.9, "unit": "%"}]}
{"smiles": "CCCCCc1cccc(=O)o1", "values": [{"measurement": "Activity", "setting": "[1]", "value": -35.5, "unit": "%"}]}
{"smiles": "C[C@H]1CCC[C@H](C[C@H]2Cc3cc(O)cc(O)c3C(=O)O2)O1", "note": "[CLADOSPORIN]", "values": [{"measurement": "Activity", "setting": "[1]", "value": -79, "unit": "%"}, {"measurement": "Activity", "setting": "[2]", "value": -14, "unit": "%"}, {"measurement": "Activity", "setting": "[3]", "value": -16, "unit": "%"}, {"measurement": "Activity", "setting": "[4]", "value": -90, "unit": "%"}]}
{"smiles": "CC(=C\\C(=O)O)/C=C(\\C)C[C@H](C)CCCC[C@H]1OC(=O)[C@@H]1CO", "note": "[ANTIBIOTIC 1233A]", "values": [{"measurement": "Activity", "setting": "[1]", "value": -39, "unit": "%"}]}
{"smiles": "O=C(O)/C=C/CCCCCCCCC(=O)O", "note": "[TRAUMATIC ACID]", "values": [{"measurement": "Activity", "setting": "[1]", "value": 28.4, "unit": "%"}]}
{"smiles": "O=C1C=C2C(=CCOC2O)O1", "note": "(centres undefined) [PATULIN]", "values": [{"measurement": "Activity", "setting": "[1]", "value": -66, "unit": "%"}]}
{"smiles": "CC[C@@]1(O)C(=O)OCc2c1cc1n(c2=O)Cc2cc3ccccc3nc2-1", "note": "[CAMPTOTHECIN]", "values": [{"measurement": "Activity", "setting": "[1]", "value": -100, "unit": "%"}]}
{"smiles": "C[C@H]1CCC/C=C/[C@@H]2C[C@H](O)C[C@H]2[C@H](O)/C=C/C(=O)O1", "note": "[BREFELDIN A]", "values": [{"measurement": "Activity", "setting": "[1]", "value": -62, "unit": "%"}]}
{"smiles": "CO[C@]12c3c(C)cc(O)c4c(=O)occ(c34)C(=O)[C@H]1[C@]13COC(=O)c4c(O)cc(C)c(c41)C(=O)[C@H]2[C@@H]3OC(C)=O", "values": [{"measurement": "Activity", "setting": "[1]", "value": -95, "unit": "%"}, {"measurement": "Activity", "setting": "[2]", "value": -67, "unit": "%"}, {"measurement": "Activity", "setting": "[3]", "value": -74, "unit": "%"}, {"measurement": "Activity", "setting": "[4]", "value": -94, "unit": "%"}, {"measurement": "Activity", "setting": "Bacillus subtilis", "value": "inactive"}, {"measurement": "Activity", "setting": "[5]", "value": "inactive"}, {"measurement": "Activity", "setting": "Bacillus cereus", "value": "inactive"}, {"measurement": "Activity", "setting": "Escherichia coli", "value": "inactive"}, {"measurement": "Activity", "setting": "Enterobacter cloacae", "value": "inactive"}, {"measurement": "Activity", "setting": "Citrobacter freundii", "value": "inactive"}, {"measurement": "Activity", "setting": "Aspergillus flavus", "value": "inactive"}, {"measurement": "Activity", "setting": "Curvularia lunata", "value": "inactive"}, {"measurement": "Activity", "setting": "Chaetomium", "value": "inactive"}, {"measurement": "Activity", "setting": "[6]", "value": "inactive"}]}
{"smiles": "CC[C@H]1C2[C@H]([C@@H](C)c3c[nH]c4ccccc34)NC(=O)[C@@]23C(=O)/C=C\\C(=O)[C@H](O)/C(C)=C\\[C@@H](C)C/C=C/[C@H]3[C@@H]2O[C@]12C", "note": "(some centres undefined) [CHAETOGLOBOSIN K]", "values": [{"measurement": "Activity", "setting": "[1]", "value": -94, "unit": "%"}, {"measurement": "Activity", "setting": "[2]", "value": -74, "unit": "%"}, {"measurement": "Activity", "setting": "[3]", "value": -97, "unit": "%"}, {"measurement": "Activity", "setting": "[4]", "value": -100, "unit": "%"}, {"measurement": "Activity", "setting": "Bacillus subtilis", "value": "inactive"}, {"measurement": "Activity", "setting": "[5]", "value": "inactive"}, {"measurement": "Activity", "setting": "Bacillus cereus", "value": "inactive"}, {"measurement": "Activity", "setting": "Escherichia coli", "value": "inactive"}, {"measurement": "Activity", "setting": "Enterobacter cloacae", "value": "inactive"}, {"measurement": "Activity", "setting": "Citrobacter freundii", "value": "inactive"}, {"measurement": "Activity", "setting": "Aspergillus flavus", "value": "inactive"}, {"measurement": "Activity", "setting": "Curvularia lunata", "value": "inactive"}, {"measurement": "Activity", "setting": "Chaetomium", "value": "inactive"}, {"measurement": "Activity", "setting": "[6]", "value": "inactive"}]}
{"smiles": "CCCCCC[C@@H]1O[C@]23O[C@H]1CC[C@H]2[C@@H](O)CC[C@H]3O", "note": "[KONINGININ A]", "values": [{"measurement": "Activity", "setting": "[1]", "value": 75, "unit": "%"}]}
{"smiles": "CCCCCC[C@@H](O)[C@H]1CCC2=C(O1)[C@@H](O)CCC2=O", "note": "[KONINGININ B]", "values": [{"measurement": "Activity", "setting": "[1]", "value": 1, "unit": "%"}]}
{"smiles": "CC[C@@H]1CCc2occ(CO)c(=O)c2[C@H]1O", "note": "[DIPLODIOL]", "values": [{"measurement": "Activity", "setting": "[1]", "value": -96.3, "unit": "%"}, {"measurement": "Activity", "setting": "[2]", "value": -70, "unit": "%"}, {"measurement": "Activity", "setting": "[3]", "value": -73, "unit": "%"}, {"measurement": "Activity", "setting": "[4]", "value": -75, "unit": "%"}, {"measurement": "Activity", "setting": "Bacillus subtilis", "value": "inactive"}, {"measurement": "Activity", "setting": "[5]", "value": "inactive"}, {"measurement": "Activity", "setting": "Bacillus cereus", "value": "inactive"}, {"measurement": "Activity", "setting": "Escherichia coli", "value": "inactive"}, {"measurement": "Activity", "setting": "Enterobacter cloacae", "value": "inactive"}, {"measurement": "Activity", "setting": "Citrobacter freundii", "value": "inactive"}, {"measurement": "Activity", "setting": "Aspergillus flavus", "value": "inactive"}, {"measurement": "Activity", "setting": "Curvularia lunata", "value": "inactive"}, {"measurement": "Activity", "setting": "Chaetomium", "value": "inactive"}, {"measurement": "Activity", "setting": "[6]", "value": "inactive"}]}
{"smiles": "CC1=C2C(=CO[C@H](C)[C@H]2C)C(O)=C(C(=O)O)C1=O", "note": "[CITRININ]", "values": [{"measurement": "Activity", "setting": "[1]", "value": -26, "unit": "%"}]}
{"smiles": "C[C@@H]1C[C@H]2O[C@@H]2/C=C\\C=C\\C(=O)Cc2c(Cl)c(O)cc(O)c2C(=O)O1", "note": "[RADICICOL]", "values": [{"measurement": "Activity", "setting": "[1]", "value": -75, "unit": "%"}, {"measurement": "Activity", "setting": "[2]", "value": -76, "unit": "%"}, {"measurement": "Activity", "setting": "[3]", "value": -94, "unit": "%"}, {"measurement": "Activity", "setting": "[4]", "value": -100, "unit": "%"}]}
